# Laboratory results from patent US5015578A, “BMY-41950 antitumor antibiotic” (Bristol-Myers Squibb Company, priority 1990, dated 1991).
# Legend:
# [1] = system: Staphylococcus aureus A9537; assay: MIC vs. Staphylococcus aureus A9537, in vitro antimicrobial screening; format: cell-based; details: read-out: MIC (Minimum Inhibitory Concentration)
# [2] = system: Enterococcus faecalis A20688; assay: MIC vs. Enterococcus faecalis A20688, in vitro antimicrobial screening; format: cell-based; details: read-out: MIC (Minimum Inhibitory Concentration)
# [3] = system: B16-F10 (murine melanoma); assay: In vitro cytotoxicity, B16-F10 cells (crystal violet); format: cell-based; details: 72 hours, 50% cell death or growth inhibition; for IC50: Mus musculus, B16-F10, read-out: In Vitro Antitumor Activity IC50, B16-F10
# Protocol: (§1) BMY-41950 was tested for in vitro cytotoxic activity against a murine and a human tumor cell line. In vivo it was tested for activity against a murine leukemia tumor model. In vitro, mitomycin C and cisplatin were used as the reference compounds, while etoposide (VP-16) was used as the in vivo reference.
# (§2) B16-F10 (murine melanoma) and HCT-116 (human colon cancer cell clone) cells were cultured in Complete McCoys Media. The media consists of 420 ml McCoys 5A media plus 500 mg sodium bicarbonate in 6 ml water, 6.56 mg L-serine. 1.5 mg L-asparagine and 82.4 mg sodium pyruvate in 2 ml water. 6.25 ml essential amino acids (50X, Gibco), 3.0 ml non-essential amino acids (100X, Gibco), 3 ml L-glutamine (200MM), 3 ml MEM vitamins (Gibco), 6.25 ml penicillin/streptomycin (Gibco) and 50 ml of heat-inactivated defined fetal calf serum.
# (§3) The two cell lines are harvested during logarithmic phase cell growth and 3600 cells in 150 microliter media were placed in each well of a 96 well microtiter plate. After 24 hours incubation at 37 degrees Celsius in a 95% air/5% carbon dioxide humidified incubator to allow the cells to attach to the plate, fifty microliters of sample/reference drug is added to 11 of 12 of the top row of wells while 50 microliters of media is added to the 12th. The drugs/media are serially diluted (4 fold dilutions) down the 8 wells of the plate. The cells in the presence of drug/media are then incubated for 72 hours. After fixing with 10% formalin, cells killed by the drug were washed off the plate while those surviving cells are stained with 0.0075% crystal violet. After drying, the stain is solubilized with 10% ethanol and 1% acetic acid, the developed plate quantitated on a Dynatech MR 600 plate reader and the IC50 values (drug concentration at which 50% cell death or growth inhibition occurs) calculated.
# [4] = system: HCT-116 (human colon cancer cell clone); assay: In vitro cytotoxicity, HCT-116 cells (crystal violet); format: cell-based; details: 72 hours, 50% cell death or growth inhibition; for IC50: Homo sapiens, HCT-116, read-out: In Vitro Antitumor Activity IC50, HCT-116
# Protocol: as §1, §2, §3
# [5] = system: lymphocytic leukemia P388 cells; assay: In vivo activity in P388 murine leukemia model; parameters: species or system murine (female CDF1 mice); details: days 1-5
# Protocol: as §1
# In vivo activity of BMY-41950 was determined in a murine leukemia tumor system. Female CDF1 mice were intraperitoneally inoculated with 0.5 ml of diluted ascitic fluid containing 10^6 lymphocytic leukemia P388 cells. Ten mice were untreated and the median survival time of this group was 10 days. Three groups of 4 mice each were treated with BMY-41950 on days 1, 2, 3, 4 and 5 post tumor implant. The drug was administered ip after being initially dissolved in DMSO, Tween 80 and buffered saline. […] Thus the % T/C (survival time of drug treated/survival time of untreated controls×100) was 130%. The criteria for antitumor activity in this murine tumor test is a % T/C of 125 or greater. Thus. BMY-41950 fulfilled the criteria for antitumor activity in the P388 murine leukemia antitumor model.
# Solubility = format: physicochemical
SMILES,MIC [1],MIC [2],IC50 [3],IC50 [4],"% T/C (survival time of drug treated/survival time of untreated controls×100) ([5]; 2 mg/kg/day ip, criterion for activity 125 or greater)","median survival time ([5]; 2 mg/kg/day ip, untreated controls 10 days)",drug-induced toxicity / deaths ([5]; 18 and 6 mg/kg/day ip),Solubility in CHCl3-CH3OH (Solubility; CHCl3-CH3OH (2:1 v/v)),Solubility in dimethylsulfoxide (DMSO) (Solubility; dimethylsulfoxide (DMSO)),Solubility in tetrahydrofuran (THF) (Solubility; tetrahydrofuran (THF)),"In Vitro Antitumor Activity IC50, B16-F10 [3]","In Vitro Antitumor Activity IC50, HCT-116 [4]"
"CNC1CC2OC(C)(C1OC)n1c3ccccc3c3c4c(c5c6ccccc6n2c5c31)C(=O)NC4=O (centres unmarked) [BMY-41950, 7-oxostaurosporine]",6.25 µg/mL,12.5 µg/mL,0.98 µg/mL,0.24 µg/mL,130%,13 days,suffered drug-induced toxicity and all mice died prior to day 7,soluble,soluble,soluble,–,–
N.N.[Cl][Pt][Cl] [Cisplatin],–,–,–,–,–,–,–,–,–,–,3.9 µg/mL,15.6 µg/mL
CO[C@@]12[C@H](COC(N)=O)C3=C(C(=O)C(C)=C(N)C3=O)N1C[C@@H]1N[C@@H]12 [Mitomycin C],–,–,0.98 µg/mL,0.98 µg/mL,–,–,–,–,–,–,–,–
